Test results as given in ChEMBL document CHEMBL5729357, “Isothiazolo[5,4-D]pyrimidine compound as IRAK4 inhibitor” (2022).

Molecular target: T1, Interleukin-1 receptor-associated kinase 4 (Homo sapiens, UniProt Q9NWZ3)
T1 sequence (Q9NWZ3 whole entry): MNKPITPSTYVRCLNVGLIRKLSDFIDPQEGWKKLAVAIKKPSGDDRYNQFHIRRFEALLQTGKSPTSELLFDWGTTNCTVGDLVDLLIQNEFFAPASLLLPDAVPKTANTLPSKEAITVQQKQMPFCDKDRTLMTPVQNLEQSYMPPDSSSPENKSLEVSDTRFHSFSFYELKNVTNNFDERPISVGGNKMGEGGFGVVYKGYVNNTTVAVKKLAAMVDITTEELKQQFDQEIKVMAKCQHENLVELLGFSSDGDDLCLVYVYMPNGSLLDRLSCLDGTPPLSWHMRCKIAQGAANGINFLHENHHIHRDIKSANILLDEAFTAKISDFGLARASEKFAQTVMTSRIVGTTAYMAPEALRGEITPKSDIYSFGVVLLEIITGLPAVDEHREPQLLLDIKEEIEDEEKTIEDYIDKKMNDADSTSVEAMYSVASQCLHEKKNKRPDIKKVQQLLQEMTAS
Assay: In Vitro Enzymatic Activity Evaluation: The inhibitory activity of the test compounds against human IRAK4 was evaluated by measuring IC50 values in a 33P-labeled kinase activity assay (Reaction Biology Corp).Buffer conditions: 20 mM Hepes (pH 7.5), 10 mM MgCl2, 1 mM EGTA, 0.02% Brij35, 0.02 mg/mL BSA, 0.1 mM Na3VO4, 2 mM DTT, 1% DMSO.Procedures: The test compound was dissolved in DMSO at room temperature to prepare a 10 mM solution for later use. The substrate was dissolved in fresh buffer, to which the kinase was added and mixed well. The DMSO solution containing the test compound was added to the above mixed reaction system by an acoustic technique (Echo 550). The concentrations of the compounds in reaction system were 10 μM, 3.33 μM, 1.11 μM, 0.370 μM, 0.123 μM, 41.2 nM, 13.7 nM, 4.57 nM, 1.52 nM, and 0.508 nM. After 15 minutes of incubation, the reaction was started by adding 33P-ATP (activity: 0.01 μCi/μL; the corresponding concentration is listed in Table 1). Supplier's catalog number, lot number and concentration information in the reaction system for IRAK4 and its substrate are listed in Table 1. After 120 minutes of reaction at room temperature, the resulting solution was loaded on P81 ion exchange chromatography paper sheet (Whatman #3698-915). […]

Row | IC50 [nM] | Compound
1 | 13.5 | Cc1nsc2nc(Nc3cnn(C4(C)COC4)c3)nc(N[C@H]3CC[C@H](N4CCOCC4)CC3)c12
2 | 231 | Cc1nsc2nc(Nc3cnn(C4CCOCC4)c3)nc(N[C@H]3CC[C@H](N4C[C@H]5C[C@@H]4CN5C(C)C)CC3)c12
